Assay results as given in patent publication US8354382B2, “Hemifumarate of a pyrazole derivative” (Kissei Pharmaceutical Co., Ltd., priority 2008, dated 2013).

Columns and labels:
[1] = Storage Stability Test (Deliquescence); assay type: physicochemical; settings: stored at 40° C. and 75% relative humidity; up to 2 months
Protocol: The hemifumarate dihydrate of Example 1, the ¾ fumarate dihydrate of Comparative Example 1 and the above compound (B) were stored under a condition of 40° C. and 75% relative humidity, and existence or nonexistence of the deliquescence was examined.

[2] = Storage Stability Test (Purity), purity by HPLC and appearance after storage; assay type: physicochemical; settings: for Purity (%) after 2 months / Purity (%) at initial point: HPLC
Protocol: The hemifumarate dihydrate of Example 1 and the above compound (B) each were stored under a condition of 40° C. and 75% relative humidity and 60° C. in open vessels, and the storage stability for 2 months was examined. […] Measurement conditions of HPLC are as follows.
Detector: ultraviolet-visible absorption spectrophotometer, wavelength: 225 nm
Column: LUNA C18(2) (produced by Phenomenex), 5 μm, 4.6×250 mm, particle diameter 100×10^−10 m
Column Temperature: a constant temperature of around 25° C.
Sample concentration: 1 mg/mL
Mobile phase A: 10 mM dipotassium hydrogenphosphate aqueous solution adjusted to pH 7.8 with phosphoric acid
Mobile phase B: acetonitrile
Gradient of concentration:
0 minute: Mobile phase B=22%
30 minutes: Mobile phase B=22%
50 minutes: Mobile phase B=70%
60 minutes: Mobile phase B=70%
Range of area measurement: for 50 minutes from the start of analysis, except for the areas of the peak of fumaric acid (retention time 2 minutes), the peak of diethyl fumarate which is an impurity (retention time around 44 minutes) and the peak of the blank solution.

[3] = storage condition 40° C. and 75% relative humidity
[4] = storage condition 60° C. in open vessels

| SMILES | existence or nonexistence of the deliquescence [1] | Purity (%) after 2 months [2, 3] [%] | Purity (%) at initial point [2, 3] [%] | Appearance after 2 months [2, 4] | Purity (%) after 2 months [2, 4] [%] | Appearance at initial point [2, 4] | Purity (%) at initial point [2, 4] [%] |
| --- | --- | --- | --- | --- | --- | --- | --- |
| Cc1cc(OCCCNCC(C)(C)C(N)=O)ccc1Cc1c(O[C@@H]2O[C@H](CO)[C@@H](O)[C@H](O)[C@H]2O)n[nH]c1C(C)C.O.O.O=C(O)/C=C/C(=O)O [Comparative Example 1, 3-(3-{4-[3-(β-D-Glucopyanosyloxy)-5-isopropyl-1H-pyazol-4-ylmethyl]-3-methyl-phenoxy}propylamino)-2,2-dimethylpropionamide ¾ fumarate dihydrate] | deliquescence was observed from the initial point of the experiment |  |  |  |  |  |  |
| Cc1cc(OCCCNCC(C)(C)C(N)=O)ccc1Cc1c(O[C@@H]2O[C@H](CO)[C@@H](O)[C@H](O)[C@H]2O)n[nH]c1C(C)C.O=C(O)/C=C/C(=O)O [Example 1, 3-(3-{4-[3-(β-D-Glucopyranosyloxy)-5-isopropyl-1H-pyrazol-4-ylmethyl]-3-methylphenoxy}propylamino)-2,2-dimethylpropionamide hemifumarate dihydrate] | no deliquescence during 2 months | 99.6 | 99.5 | White | 99.0 | White | 99.5 |
| Cc1cc(OCCCNCC(C)(C)C(N)=O)ccc1Cc1c(O[C@@H]2OC(CO)[C@@H](O)C(O)C2O)n[nH]c1C(C)C (stereo partly drawn) [compound (B), 3-(3-{4-[3-(β-D-Glucopyanosyloxy)-5-isopropyl-1H-pyazol-4-ylmethyl]-3-methylphenoxy}propylamino)-2,2-dimethylpropionamide] | deliquescence was observed from the initial point of the experiment | 97.0 | 98.7 | Brown | 95.3 | White | 98.7 |
